Source: article PMC13223435, “Synthesis and Antiproliferative Activity against Melanoma Cells of New Heterocyclic Hybrids Based on Pyridine and Pyrimidine Scaffolds” (Current Medicinal Chemistry, 2025)

Experiments:
A375 cells = test: Live-cell imaging (time-lapse microscopy); format: cell-based; conditions: 1 µM, positive control
Procedure: For live-cell imaging, A375 cells were seeded into 96-well plates at a density of 2×10^3 cells per well and allowed to grow for 24 h before imaging. Next, the cell culture medium was carefully removed, and new medium containing 16b (at 2 µM and 10 µM) and 29 (at 5 µM and 10 µM) was added and the cell culture plate was placed in the imaging chamber of Agilent BioTek Lionheart FX automated microscope (Agilent Technologies, Inc., Santa Clara, CA, USA) equipped with a Plan Fluorite 20x/0.75 objective (Olympus, Nishi-Shinjuki, Tokyo, Japan), and a FLIR Blackfly BFLY-U3-23S6M camera (Teledyne FLIR, Wilsonville, OR, USA). The temperature in the imaging chamber was set to 37°C and CO2 level to 5%. The bright-field images were acquired every 5 minutes for 48 hours.

melanoma A375 cells = test: WST-1 antiproliferative assay; format: cell-based; conditions: Homo sapiens, A-375; for activity at 10 µM: 48 h of treatment, A375, read-out: Cell proliferation (% control)
Source text: The A375 malignant melanoma cell line (ECACC 88113005, Salisbury, UK) was procured from the European Collection of Authenticated Cell Cultures (ECACC). The primary culture of human dermal fibroblasts (HDF) was derived from skin according to the protocol approved by the Ethical Committee of Pomeranian Medical University in Szczecin (KB-0012/02/18). The detailed protocol of fibroblast isolation, authentication, and cell culture conditions was previously described. Both cell lines were cultivated in a humidified incubator under conditions of 5% CO2 and a temperature of 37°C, using Dulbecco’s modified Eagle’s medium (DMEM) with 4500 mg/L glucose (Sigma-Aldrich Merck Group, St. Louis, MO, USA) enriched with 10% heat-inactivated fetal bovine serum (FBS, EURx, Gdańsk, Poland), 2 mM L-glutamine (Sigma-Aldrich Merck Group, St. Louis, MO, USA), and penicillin-streptomycin solution (Sigma-Aldrich Merck Group, St. Louis, MO, USA). Regular assessments for the presence of mycoplasma were conducted using the MycoAlert® Mycoplasma Detection Kit (Lonza, Rockland, ME, USA).
The evaluation of the antiproliferative activity of the compounds was performed using the Cell Proliferation Reagent WST-1 assay (Roche, Germany). This assay relies on the reduction of tetrazolium salt to formazan, with the final amount of formazan proportional to the number of viable cells. In our study, A375 cells (2×10^3) and HDF (3×10^3) were initially seeded into 96-well plates and cultured in a humidified atmosphere of 5% CO2 at 37°C. 24 hours later, the culture medium was replaced with a medium containing the tested compounds for a 48-hour incubation period at specified final concentrations. […] For control purposes, cells without the tested compounds, which contained only the vehicle (DMSO), were used. Additionally, a blank sample consisting of tested compounds in a medium (without cells) was included. After the 48-hour incubation period, the WST-1 reagent was introduced and allowed to incubate with the cells for 30 minutes. The absorbance was subsequently measured at 450 nm with background correction at 620 nm using a microplate reader (Infinite 200 Pro, Tecan, Männedorf, Switzerland). Cell viability was calculated according to the following formula: [(Atest–Ablank)/ (Acontrol − Ablank)] × 100%. These measurements were conducted in triplicate for at least three independent experiments.
In the screening step, 10 µM solutions of all 33 compounds were tested on A375 cells. […] Selected compounds (2c, 18e, 16b, 29) were tested at concentrations of 0.1, 1, 10, 50, and 100 µM. The IC50 values were determined using an online calculator (AAT Bioquest, Inc., Quest Graph™ IC50 Calculator (v.1). Retrieved from https://www.aatbio.com/tools/IC50-calculator-v1, accessed on: 2022, December 12).

SMILES | time-lapse observation of A375 cells (A375 cells) | activity at 10 µM (melanoma A375 cells) [%] | IC50 (melanoma A375 cells; 48 hours of treatment) [µM]
COc1ccc(/C=C\c2cc(OC)c(OC)c(OC)c2)cc1O [CA-4, combretastatin-4, reference compound] | caused the formation of characteristic protrusions, indicating changes in the organization of the cytoskeleton leading to apoptosis with typical apoptotic bodies |  | 
COc1cc(-c2cnc(=S)[nH]c2)cc(OC)c1OC [Compound 1d] |  | 99.2 ± 10.8 | 
COc1ccc(C2=CNC(=S)N(Cc3ccccc3)C2C#Cc2ccccc2)cc1 (centres unmarked) [Compound 2a] |  | 100 ± 6.85 | 
COc1ccc(C2=CNC(=S)N(C)C2C#Cc2ccsc2)cc1 (centres unmarked) [Compound 2b] |  | 92.4 ± 2.51 | 
S=C1NC=C(c2ccccc2)C(C#Cc2ccsc2)N1Cc1ccccc1 (centres unmarked) [Compound 2c] |  | 44.8 ± 6.68 | 59.3 ± 9.62
COc1ccc(C2=CNC(=S)N(C)C2C#Cc2ccccn2)cc1 (centres unmarked) [Compound 2d] |  | 93.3 ± 16.6 | 
COc1cc(C2=CNC(=S)NC2Cc2ccccc2)cc(OC)c1OC (centres unmarked) [Compound 2e] |  | 138 ± 19.5 | 
COc1cc(C2=CNC(=S)NC2c2cccs2)cc(OC)c1OC (centres unmarked) [Compound 2f] |  | 127 ± 9.99 | 
COc1ccc(C#Cc2ccsc2)cn1 [Compound 4b] |  | 111 ± 10.8 | 
O=c1ccc(C#Cc2cccs2)c[nH]1 [Compound 5a] |  | 114 ± 4.12 | 
O=c1ccc(C#Cc2ccsc2)c[nH]1 [Compound 5b] |  | 113 ± 9.77 | 
S=C1CC(Cc2ccccc2)C(C#Cc2cccs2)=CN1 (centres unmarked) [Compound 6a] |  | 101 ± 9.41 | 
S=C1CC(Cc2ccccc2)C(C#Cc2ccsc2)=CN1 (centres unmarked) [Compound 6b] |  | 101 ± 6.05 | 
O=c1ccc(-n2cc(-c3ccsc3)nn2)c[nH]1 [Compound 9a] |  | 114 ± 14.5 | 
O=C1CC(Cc2ccccc2)C(n2cc(-c3ccsc3)nn2)=CN1 (centres unmarked) [Compound 10a] |  | 98.8 ± 12.6 | 
O=C1CC(Cc2ccccc2)C(n2cc(-c3ccccc3)nn2)=CN1 (centres unmarked) [Compound 10b] |  | 96.1 ± 4.11 | 
